Reference: US20220117919A1, “ENHANCED BIOAVAILABILITY OF N-(2,6-BIS(1-METHYLETHYL)PHENYL)-N'-((1-(4-(DIMETHYLAMINO)-PHENYL)CYCLOPENTYL)METHYL)UREA HYDROCHLORIDE” (The Regents of the University of Michigan, priority 2015, published 2022)
Several values for one entry are separate records, joined by “and”; a condition that tells them apart may be missing. Equal values may be shown once. Where a name gives a salt, the structure may show the parent alone.

Experiment: Food and acidic beverage effect on bioavailability of ATR-101 tablets, 3-way crossover plasma PK study
Format: in vivo, human
Details: single oral 500 mg; for kel: in h-1
Description: To evaluate the effects of food and of an acidic beverage on bioavailability of ATR-101 tablets prepared according to Example 2 (see Table 2), an open-label, randomized, 3-period, 3-way crossover, 3-sequence study was carried out with fourteen healthy, adult, non-tobacco using male and female (non-childbearing potential only) human subjects.
Three different treatments A, B, and C were administered as follows:
Treatment A: 500 mg ATR-101 (1×500 mg tablet) administered with water at Hour 0 on Day 1 following an overnight fast.
Treatment B: 500 mg ATR-101 (1×500 mg tablet) administered with water at Hour 0, 30 minutes after the start of a high-fat breakfast, on Day 1.
Treatment C: 500 mg ATR-101 (1×500 mg tablet) administered with Coca-Cola® Classic at Hour 0 on Day 1 following an overnight fast.
On Day 1 of Period 1, subjects were randomized to one of 3 treatment sequences: ABC, BCA, or CBA. For Treatments A and B, ATR-101 was administered orally with approximately 240 mL of water. For Treatment C, ATR-101 was administered orally with approximately 240 mL of Coca-Cola® Classic. Water (except water provided with dosing for Treatments A and B) was restricted 1 hour prior to and 1 hour after each study drug administration, but was allowed ad libitum at all other times. Other fluids were given as part of the standard meals (including the breakfast administered prior to study drug dosing for Treatment B) and/or snacks, but were restricted at all other times (except for the Coca-Cola® Classic beverage provided with dosing in Treatment C) throughout the confinement period.
For Treatments A and C, subjects fasted overnight for at least 10 hours prior to study drug administration and continued the fast for at least 4 hours post-dose.
For Treatment B, subjects were required to fast overnight for at least 10 hours until 30 minutes prior to study drug administration, when they were given breakfast which was entirely consumed within 30 minutes. A representative breakfast includes 2 slices of buttered toast, 2 fried eggs, 2 strips of bacon, 4 oz of hash brown potatoes, and 240 mL of whole milk.
On Day 1 of each period, a standard lunch and dinner was provided at approximately 4 and 9 hours post-dose, respectively, and a snack was also offered at approximately 12 hours post-dose. On other days when confined in the CRU, standard meals and/or snacks were provided at appropriate times. When confined, subjects were required to fast from all food and drink except water between meals and snacks served at the clinical research unit.
Each meal and/or snack served at the clinical research unit was standardized and was similar in caloric content and composition (except for the meal served as part of Treatment B) and was taken at approximately the same time in each period.
For all subjects, blood samples for the determination of ATR-101 plasma concentration were collected at pre-dose and 0.5, 1, 1.5, 2, 2.5, 3, 3.5, 4, 5, 6, 8, 12, 16, 24, 36, and 48 hours post-dose. PK parameters for plasma ATR-101 were calculated as follows: • AUC0-t: The area under the plasma concentration-time curve, from time 0 to the last measurable non-zero concentration, was calculated by the linear trapezoidal method. • AUC0-inf: The area under the plasma concentration-time curve from time 0 extrapolated to infinity. AUC0-inf was calculated as the sum of AUC0-t plus the ratio of the last measurable plasma concentration to the elimination rate constant. • AUC%extrap: Percent of AUC0-inf extrapolated, represented as
[formula] • Cmax: Maximum observed concentration. • tmax: Time to reach Cmax. If the maximum value occurred at more than one time point, tmax was defined as the first time point with this value. • ke1: Apparent first-order terminal elimination rate constant calculated from a semi-log plot of the plasma concentration versus time curve. […]

[1] = Treatment A (fasting with water), Maximum
[2] = Treatment A (fasting with water), Mean
[3] = Treatment A (fasting with water), Median
[4] = Treatment A (fasting with water), Minimum
[5] = Treatment A (fasting with water), individual subject, hydrochloride
[6] = Treatment B (fed with water), Maximum
[7] = Treatment B (fed with water), Mean
[8] = Treatment B (fed with water), Median
[9] = Treatment B (fed with water), Minimum
[10] = Treatment B (fed with water, high-fat breakfast), individual subject, hydrochloride
[11] = Treatment C (fasting with acidic beverage), Maximum
[12] = Treatment C (fasting with acidic beverage), Mean
[13] = Treatment C (fasting with acidic beverage), Median
[14] = Treatment C (fasting with acidic beverage), Minimum

Q: With `CC(C)c1cccc(C(C)C)c1NC(=O)NCC1(c2ccc(N(C)C)cc2)CCCC1` [ATR-101, N-(2,6-bis(1-methylethyl)phenyl)-N′-((1-(4-(dimethylamino)-phenyl)cyclopentyl)methyl)urea hydrochloride] as the molecule, how does the AUC0-inf [1] read?
A: The AUC0-inf was 5050 ng·h/mL.

Q: And the AUC0-t [1]?
A: The AUC0-t was 4860 ng·h/mL.

Q: What about the AUC% extrap [1] of the same molecule?
A: The AUC% extrap was 12.7%.

Q: And the Cmax [1]?
A: Its Cmax is 933 ng/mL.

Q: And the t1/2 [1]?
A: The t1/2 was 22.7 h.

Q: And the tmax [1]?
A: Its tmax is 12.0 h.

Q: And the kel [1]?
A: The kel was 0.0612.

Q: What about the AUC% extrap [2] of the same molecule?
A: Its AUC% extrap is 8.64%.

Q: And the kel [2]?
A: The kel was 0.0406.

Q: What about the AUC% extrap [3] of the same molecule?
A: Its AUC% extrap is 9.43%.

Q: And the kel [3]?
A: The kel was 0.0380.

Q: And the AUC0-inf [4]?
A: The AUC0-inf was 2430 ng·h/mL.

Q: What about the AUC0-t [4] of the same molecule?
A: Its AUC0-t is 840 ng·h/mL.

Q: What about the AUC% extrap [4] of the same molecule?
A: Its AUC% extrap is 3.72%.

Q: And the Cmax [4]?
A: Its Cmax is 26.1 ng/mL.

Q: What about the t1/2 [4] of the same molecule?
A: Its t1/2 is 11.3 h.

Q: What about the tmax [4] of the same molecule?
A: The tmax was 1.50 h.

Q: What about the kel [4] of the same molecule?
A: The kel was 0.0305.

Q: And the AUC0-inf [5]?
A: Its AUC0-inf is 2740 and 4290 and 2630 and 2430 and 5050 and 2560 and 4700 and 4940 and 4370.

Q: What about the AUC0-t [5] of the same molecule?
A: Its AUC0-t is 2450 and 3180 and 3810 and 2490 and 840 and 2200 and 4860 and 2330 and 1520 and 4100 and 4400 and 3880.

Q: And the AUC% extrap [5]?
A: Its AUC% extrap is 10.6% and 6.68% and 11.2% (2×) and 5.32% and 9.43% and 3.72% and 8.82% and 12.7% and 4.61% and 10.8%.

Q: And the Cmax [5]?
A: The Cmax was 509 ng/mL and 620 ng/mL and 807 ng/mL and 26.1 ng/mL and 612 ng/mL and 539 ng/mL and 306 ng/mL and 526 ng/mL and 486 ng/mL and 933 ng/mL and 842 ng/mL.

Q: And the tmax [5]?
A: Its tmax is 2.5 h and 1.50 h and 12.0 h and 1.5 h and 3.00 h.

Q: What about the kel [5] of the same molecule?
A: The kel was 0.0378 and 0.0414 and 0.0347 and 0.0456 and 0.0380 and 0.0612 and 0.0404 and 0.0317 and 0.0531 and 0.0305 and 0.0318.

Q: And the AUC0-inf [6]?
A: Its AUC0-inf is 14000 ng·h/mL.

Q: And the AUC0-t [6]?
A: Its AUC0-t is 13200 ng·h/mL.

Q: And the AUC% extrap [6]?
A: Its AUC% extrap is 17.9%.

Q: And the Cmax [6]?
A: Its Cmax is 2060 ng/mL.

Q: What about the t1/2 [6] of the same molecule?
A: Its t1/2 is 30.7 h.

Q: And the tmax [6]?
A: The tmax was 5.00 h.

Q: What about the kel [6] of the same molecule?
A: The kel was 0.0603.

Q: What about the AUC% extrap [7] of the same molecule?
A: Its AUC% extrap is 8.00%.

Q: And the kel [7]?
A: Its kel is 0.0364.

Q: What about the AUC% extrap [8] of the same molecule?
A: The AUC% extrap was 7.27%.

Q: And the kel [8]?
A: The kel was 0.0366.

Q: And the AUC0-inf [9]?
A: Its AUC0-inf is 3790 ng·h/mL.

Q: What about the AUC0-t [9] of the same molecule?
A: Its AUC0-t is 3520 ng·h/mL.

Q: And the AUC% extrap [9]?
A: Its AUC% extrap is 2.07%.

Q: What about the Cmax [9] of the same molecule?
A: The Cmax was 719 ng/mL.

Q: What about the t1/2 [9] of the same molecule?
A: Its t1/2 is 11.5 h.

Q: What about the tmax [9] of the same molecule?
A: Its tmax is 1.50 h.

Q: And the kel [9]?
A: Its kel is 0.0226.

Q: What about the AUC0-inf [10] of the same molecule?
A: Its AUC0-inf is 3790 and 6400 and 14000 and 5390 and 4540 and 7640 and 9000 and 7660 and 7670 and 5830 and 5820 and 4900 and 9990 and 7210.

Q: And the AUC0-t [10]?
A: Its AUC0-t is 3520 and 5930 and 13200 and 5280 and 4120 and 6890 and 8430 and 6810 and 6290 and 5420 and 5310 and 4740 and 9300 and 6570.

Q: And the AUC% extrap [10]?
A: The AUC% extrap was 7.07% and 7.35% and 5.87% and 2.07% and 9.33% and 9.87% and 6.38% and 1.1% and 17.9% and 7.19% and 8.76% and 3.35% and 6.89% and 8.80%.

Q: What about the Cmax [10] of the same molecule?
A: The Cmax was 1040 ng/mL and 1620 ng/mL and 2060 ng/mL and 1120 ng/mL and 848 ng/mL and 1340 ng/mL and 2000 ng/mL and 1210 ng/mL and 931 ng/mL and 719 ng/mL and 759 ng/mL and 1690 ng/mL and 993 ng/mL.

Q: And the t1/2 [10]?
A: Its t1/2 is 19.3 h and 20.9 h and 16.9 h and 11.5 h and 25.1 h and 27.8 h and 18.0 h and 24.9 h and 30.7 h and 17.4 h and 23.9 h and 13.2 h and 17.7 h and 18.6 h.

Q: What about the tmax [10] of the same molecule?
A: Its tmax is 1.50 h and 2.50 h and 3.00 h and 5.00 h and 4.01 h and 3.57 h.

Q: What about the kel [10] of the same molecule?
A: The kel was 0.0359 and 0.0332 and 0.0410 and 0.0603 and 0.0276 and 0.0249 and 0.0385 and 0.0278 and 0.0226 and 0.0398 and 0.0290 and 0.0526 and 0.0392 and 0.0374.

Q: What about the AUC0-inf [11] of the same molecule?
A: The AUC0-inf was 6970 ng·h/mL.

Q: And the AUC0-t [11]?
A: Its AUC0-t is 6430 ng·h/mL.

Q: And the AUC% extrap [11]?
A: Its AUC% extrap is 21.5%.

Q: And the Cmax [11]?
A: The Cmax was 1550 ng/mL.

Q: And the t1/2 [11]?
A: The t1/2 was 27.9 h.

Q: What about the tmax [11] of the same molecule?
A: Its tmax is 6.00 h.

Q: And the kel [11]?
A: The kel was 0.0501.

Q: And the AUC% extrap [12]?
A: The AUC% extrap was 10.6%.

Q: What about the kel [12] of the same molecule?
A: Its kel is 0.0377.

Q: What about the AUC% extrap [13] of the same molecule?
A: Its AUC% extrap is 8.95%.

Q: What about the kel [13] of the same molecule?
A: The kel was 0.0376.

Q: And the AUC0-inf [14]?
A: Its AUC0-inf is 728 ng·h/mL.

Q: What about the AUC0-t [14] of the same molecule?
A: Its AUC0-t is 572 ng·h/mL.

Q: And the AUC% extrap [14]?
A: Its AUC% extrap is 3.84%.

Q: What about the Cmax [14] of the same molecule?
A: Its Cmax is 19.8 ng/mL.

Q: What about the t1/2 [14] of the same molecule?
A: The t1/2 was 13.8 h.
